The test system of data set [1] is human neuroblastoma cell line GOTO. The experiment in a line: Activity on neuroblastoma cell line GOTO (cell number, number and length of neurites). Type of data set: cell-based. As to the method:
The biological activities in vitro of the compounds of formula (I) on cells of the nervous system were tested. The cells tested were human neuroblastoma cell line GOTO [see Sekiguchi, M., Oota, T., Sakakibara, K., Inui, N. & Fujii, G., Japan. J. Exp. Med., 49, 67-83 (1979)], and neuroblastoma cell line NB-1 [see Miyake, S., Shimo, Y., Kitamura, T., Nojyo, Y., Nakamura, T., Imkashuku, S. and Abe, T., The Autonomic Nervous System, 10, 115-120 (1973)], and mouse neuroblastoma cell line neuro-2a (Dainippon Pharmaceutical Co., Ltd.) which have been established as the cells of the nervous system. The above neuve cells were grown in an incubator at 37° C. in the presence of 5% carbon dioxide gas exponentially, and then cultivated for a certain period of time together with the compounds of formula (I).
The effect of the compounds of this invention on neuroblastoma cells was examined by the following method.
A culture medium [composed of 45% of RPMI 1640 medium, 45% modified Eagle's medium (MEM) and 10% of fetal calf serum (FCS) and containing penicillin G sodium (100 units/ml) and streptomycin sulfate (100 microgram/ml)] containing neurobalstoma cell line GOTO in the logarithmic growth period was poured in an amount of 2 ml each into polystyrene dishes (35 mm; made by Corning Co.) so that the cell concentration was 2 to 6×10^4 cells per dish, and the cells were cultured for 1 to 2 days in a carbon dioxide gas incubator containing 5% of carbon dioxide gas in air at 37° C. Then, the culture fluid was removed, and 2 ml of a fresh serum-free culture fluid (consisting of 50% of RPMI medium and 50% of MEM medium and containing penicillin G sodium and streptomycin sulfate in the same amounts as above) was added. At the same time, a presterilized PBS solution (phosphate buffered saline) of each of the test compounds in various concentrations was added to each of the dishes. After culturing for 24 hours, the number of living cells was counted. Furthermore, the culture was photographed, and from the photos, the number and length of neurites per cell were measured. The numer of living cells was counted for 3 to 6 dishes by resistance to staining with erythrosine dye. The number and length of the neurites were measured with regard to 6 photos (more than 200 cells per photo).

For data set [2], the system named is mouse neuroblastoma cell line neuro-2a. As to the kind of experiment: Activity on neuro-2a, cells with outgrown neurites. Type of data set: cell-based. Here is the method: In order to examine the effects of the test compounds, the following method was also employed.
Mouse neuro 2a cells in the logarithmic growth period in the Dulbecco's modified Eagle's medium (DMEM) containing 10% FCS was seeded in a 48-well plate so that the number of cells was 1,000 cells/well, and cultured for one day in 0.25 ml of the culture fluid in each well. The culture medium was then replaced by a medium containing each of the test compounds and FCS, and the cells were further cultured for 24 hours. Then, a 4% aqueous glutaraldehyde solution in the same amount as the medium (0.25 ml) was added, and the culture fluid was left to stand at room temperature for 2 hours to fix the cells. After washing with water, a 0.05% aqueous solution of methylene blue was added to stain the cells. Under a microscope, the number of cells containing outgrown neurites (cells having at least one neutrite with a length at least two times as large as the long diameter of the cell) was counted visually, and the proportion of these cells in the entire cells was calculated. The well was observed over 5 or more visual fields (at least 2% of the entire surface area of the well) continuous to the left and right from a mark put at the center of the well, and more than 200 cells was counted. One drug compound was used in 6 different concentrations at most, and three runs were conducted for each concentration.

In a further data set the test system is mice. The experiment in a line: Acute toxicity, mouse. The note with it: 24 hours; for Number of dead animals/number of test animals: Table 7, 1000 mg/kg p.o.; for Presumed LD50: Table 7, p.o., 1440 min. Type of data set: in vivo. As to the method: The acute toxicity of the compounds of the invention was examined by the following method.
Male ddy-strain 5-week old mice and male Wistar-strain 8 week old rats, five per group, were used as experimental animals. Each of the compounds was dissolved in saline and administered perorally, and the toxicity of the compound was assessed 24 hours after the administration.

The mark [3] stands for this setting: Table 3 Run No. 10, 0.1 mM, control 1.7 ± 0.7.
Setting [4] is: Table 3 Run No. 6, 0.1 mM, control 4.4 ± 0.9.
[5] abbreviates: Table 3 Run No. 11, 0.1 mM, control 2.5 ± 0.6.
Where [6] appears, read: Table 3 Run No. 11, 0.3 mM, control 2.5 ± 0.6.

A value given as a limit tells only on which side of the number the result lay.

In the case of `CCOC(=O)CN1CCN(c2ncc(C(=O)OC)c(NC(C)C)n2)CC1` [Compound 100, Methyl 2-(4-ethoxycarbonylmethylpiperazino)-4-isopropylaminopyrimidine-5-carboxylate], in data set [1] (Table 1, Run No. 7 by footnote, 10 μg/ml, control 1.77 ± 0.68), the “Number of neurites/cell (mean ± S.D.)” value is recorded as 2.00 ± 0.79 neurites/cell. In addition, in data set [1] (Table 1, Run No. 7 by footnote, 10 μg/ml, control 42.20 ± 17.75, all *P <0.01), the “Length of neurites (mean ± S.D.)” value turned out to be 56.06 ± 26.47 μm/cell.
As for `CCNc1nc(N2CCNCC2)ncc1C(=O)OC` [Compound 136], the “Number of neurites/cell (mean ± S.D.)” value in data set [1] (Table 1 Run No. 2, 1 μg/ml, control 2.06 ± 0.60) is given as 2.14 ± 0.63 neurites/cell. Further, the “Number of cells (mean ± S.E.)” value in data set [1] (Table 1 Run No. 2, 1 μg/ml, control 12.30 ± 1.48) is on record as 12.85 ± 2.52 × 10^4 /dish. In data set [1] (Table 1 Run No. 2, 1 μg/ml, control 55.00 ± 37.26), the “Length of neurites (mean ± S.D.)” value worked out at 60.24 ± 34.28 μm/cell. Besides, the “Cells having neurites with a length at least twice the long diameter of cell/total number of cells” value is 7.2 ± 1.7% in data set [2] (Table 3 Run No. 2, 0.1 mM, control 1.9 ± 0.9); 5.8 ± 1.6% in data set [2] (Table 3 Run No. 10, 0.01 mM, control 1.7 ± 0.7); 16.4 ± 0.9% in data set [2] (Table 3 Run No. 10, 0.03 mM, control 1.7 ± 0.7); 12.6 ± 1.4% in data set [2] (setting [3]).
Take `CN1C(=O)Cc2cnc(N3CCN(Cc4ccc5c(c4)OCO5)CC3)nc21` [Compound 438, 5,6-Dihydro-7-methyl-2[4-(3,4-methylenedioxyphenylmethyl)piperazino]-6-oxo(7H)pyrrolo[2,3-d]pyrimidine naphthalene-2-sulfonate]: in the data set on mice, the “Number of dead animals/number of test animals” value is 0/5.
`CN1Cc2nc(N3CCNCC3)ncc2C1=O` [Compound 606]: in the data set with mice, the “Number of dead animals/number of test animals” value was 0/5 and the “Presumed LD50” value was over 1000 mg/kg p.o. The “Cells having neurites with a length at least twice the long diameter of cell/total number of cells” value in data set [2] (setting [4]) is listed as 6.9 ± 1.8%. For the same compound, in data set [2] (Table 3 Run No. 6, 3 mM, control 4.4 ± 0.9), the “Cells having neurites with a length at least twice the long diameter of cell/total number of cells” value is 11.9 ± 2.1%.
Regarding `CN1Cc2nc(N3CCNCC3)ncc2C1=O` [Compound 608], in the data set on mice, the “Number of dead animals/number of test animals” value is recorded as 0/5 and the “Presumed LD50” value was over 1000 mg/kg p.o.
Turning to `CC(C)N1Cc2nc(N3CCNCC3)ncc2C1=O` [Compound 628], the “Length of neurites (mean ± S.D.)” value in data set [1] (Table 1, Run No. 6 by footnote, 1 μg/ml, control 42.48 ± 19.64, all *P <0.01) is 55.72 ± 25.08 μm/cell; in data set [1] (Table 1, Run No. 6 by footnote, 10 μg/ml, control 42.48 ± 19.64, all *P <0.01), 53.68 ± 22.36 μm/cell. Moreover, the “Number of neurites/cell (mean ± S.D.)” value in data set [1] (Table 1, Run No. 6 by footnote, 10 μg/ml, control 1.79 ± 0.80) stood at 2.06 ± 0.81 neurites/cell; in data set [1] (Table 1, second control group (Run No. 6 by footnote), 1 μg/ml, control 1.79 ± 0.80), 1.90 ± 0.81 neurites/cell.
Regarding `CC(=O)N1Cc2nc(N3CCNCC3)ncc2C1=O` [Compound 650, 6-Acetyl-2-piperazino-5-oxo-5,6-dihydro(7H)pyrrolo[3,4-d]pyrimidine naphthalene-2-sulfonate], the “Number of dead animals/number of test animals” value in the data set on mice is 0/5.
For the compound `CCOC(=O)CC1C(=O)N(C)c2nc(N3CCNCC3)ncc21` (centres unmarked) [Compound 674], the “Cells having neurites with a length at least twice the long diameter of cell/total number of cells” value turned out to be 4.2 ± 0.8% in data set [2] (Table 3 Run No. 11, 0.03 mM, control 2.5 ± 0.6); 6.7 ± 1.3% in data set [2] (setting [5]); 4.5 ± 1.9% in data set [2] (setting [6]).
In the case of `CCC(=O)N1Cc2nc(N3CCNCC3)ncc2C1=O` [Compound 678], the “Number of dead animals/number of test animals” value in the data set with mice is given as 0/5. Moreover, the “Cells having neurites with a length at least twice the long diameter of cell/total number of cells” value in data set [2] (setting [5]) is 4.1 ± 2.2%; in data set [2] (Table 3 Run No. 11, 1 mM, control 2.5 ± 0.6), 16.1 ± 1.6%; in data set [2] (Table 3 Run No. 11, 3 mM, control 2.5 ± 0.6), 9.1 ± 2.2%.
Consider `Cn1ccc2nc(N3CCNCC3)ncc2c1=O` [Compound 707], for which the “Cells having neurites with a length at least twice the long diameter of cell/total number of cells” value stood at 7.3 ± 1.0% in data set [2] (Table 3 Run No. 7, 0.3 mM, control 2.5 ± 0.7); 10.5 ± 1.5% in data set [2] (Table 3 Run No. 7, 0.5 mM, control 2.5 ± 0.7); 21.4 ± 1.7% in data set [2] (Table 3 Run No. 7, 1 mM, control 2.5 ± 0.7); 6.1 ± 0.5% in data set [2] (Table 3 second Run No. 5, 0.01 mM, control 4.5 ± 0.3); 36.1 ± 3.7% in data set [2] (Table 3 second Run No. 5, 1 mM, control 4.5 ± 0.3).
Consider `Cl.c1nc(N2CCNCC2)nc2c1CCO2` [Compound 902, 5,6-Dihydro-2-piperazinofuro[2,3-d]pyrimidine hydrochloride], for which the “Cells having neurites with a length at least twice the long diameter of cell/total number of cells” value in data set [2] (Table 3 Run No. 6, 0.01 mM, control 4.4 ± 0.9) was 6.9 ± 0.8%; in data set [2] (Table 3 Run No. 6, 0.03 mM, control 4.4 ± 0.9) it was 6.7 ± 0.9%; in data set [2] (Table 3 Run No. 6, 1 mM, control 4.4 ± 0.9), 6.7 ± 1.0%.
On to `Cc1cc2c(C)nc(N3CCNCC3)nc2o1.Cl` [Compound 906, 4,6-Dimethyl-2-piperazinofuro[2,3-d]pyrimidine hydrochloride], for which the “Cells having neurites with a length at least twice the long diameter of cell/total number of cells” value in data set [2] (setting [4]) was 7.4 ± 1.0%; in data set [2] (Table 3 Run No. 6, 0.3 mM, control 4.4 ± 0.9), 7.0 ± 0.6%.
For `CN1CCc2cnc(N3CCNCC3)nc21` [Compound 914, 5,6-Dihydro-7-methyl-2-piperazino(7H)pyrrolo[2,3-d]pyrimidine naphthalene-2-sulfonate], the “Cells having neurites with a length at least twice the long diameter of cell/total number of cells” value in data set [2] (setting [3]) is on record as 4.9 ± 0.9%; in data set [2] (Table 3 Run No. 10, 0.3 mM, control 1.7 ± 0.7), 4.6 ± 0.8%.
For `CC1Cc2nc(N3CCNCC3)ncc2C(=O)O1.Cl` (centres unmarked) [Compound 918, 7,8-Dihydro-7-methyl-5-oxo-2-piperazino(5H)pyrano[4,3-d]pyrimidine hydrochloride], the “Cells having neurites with a length at least twice the long diameter of cell/total number of cells” value in data set [2] (Table 3 Run No. 4, 0.1 mM, control 3.1 ± 0.2) was determined as 7.4 ± 2.5%; in data set [2] (Table 3 Run No. 4, 1 mM, control 3.1 ± 0.2), 12.5 ± 0.9%.
In the case of `COc1cc2cnc(N3CCNCC3)nc2cc1OC` [Compound 940], in data set [1] (Table 1 Run No. 1, 10 μg/ml, control 2.09 ± 0.61), the “Number of neurites/cell (mean ± S.D.)” value is 2.12 ± 0.60 neurites/cell. For the same compound, in data set [1] (Table 1 Run No. 1, 10 μg/ml, control 14.34 ± 0.72), the “Number of cells (mean ± S.E.)” value is reported as 21.55 ± 2.36 × 10^4 /dish. Besides, the “Length of neurites (mean ± S.D.)” value in data set [1] (Table 1 Run No. 1, 10 μg/ml, control 70.10 ± 43.03) turned out to be 77.92 ± 49.91 μm/cell. Also, the “Cells having neurites with a length at least twice the long diameter of cell/total number of cells” value in data set [2] (setting [5]) is 11.5 ± 0.2%; in data set [2] (setting [6]), 17.0 ± 1.2%.

Values taken from patent US4959368A, “Therapeutic agent for neurological diseases” (Mitsui Petrochemical Industries Ltd., priority 1986, dated 1990).
